Source: patent publication US6469127B1, “Polycarbonate resin having low tendency of releasing environmental endocrine disruptors” (Space Environmental Technology Company, Inc,, priority 1999, dated 2002)

Molecular target: T1, Estrogen Receptor (Homo sapiens, UniProt P03372)
T1 sequence (P03372 1-595): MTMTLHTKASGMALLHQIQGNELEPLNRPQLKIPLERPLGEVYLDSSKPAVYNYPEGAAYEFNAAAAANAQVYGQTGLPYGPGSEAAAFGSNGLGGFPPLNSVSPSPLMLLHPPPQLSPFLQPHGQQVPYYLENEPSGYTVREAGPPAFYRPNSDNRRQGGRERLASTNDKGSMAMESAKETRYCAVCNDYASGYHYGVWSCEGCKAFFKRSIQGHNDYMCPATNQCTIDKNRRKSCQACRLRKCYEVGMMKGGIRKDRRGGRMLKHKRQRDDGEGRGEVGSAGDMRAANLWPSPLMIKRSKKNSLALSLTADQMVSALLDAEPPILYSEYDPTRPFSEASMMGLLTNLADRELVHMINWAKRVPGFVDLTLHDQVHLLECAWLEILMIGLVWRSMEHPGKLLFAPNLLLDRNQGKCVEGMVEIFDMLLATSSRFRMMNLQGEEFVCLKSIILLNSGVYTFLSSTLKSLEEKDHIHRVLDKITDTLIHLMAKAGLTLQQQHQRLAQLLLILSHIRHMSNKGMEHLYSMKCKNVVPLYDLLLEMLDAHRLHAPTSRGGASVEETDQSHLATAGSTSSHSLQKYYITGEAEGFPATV
Assay: Tendency to link to estrogen receptor (IC50 of bisphenols and reference compounds, Table 1)
Assay type: binding
Details: concentration required to substitute 50% of genuine hormone linked to receptor

SMILES: CCCCCCCCCc1ccc(O)cc1 [4-Nonylphenol]
- IC50: 3.9 µM
